For the assay, the target named is Induced myeloid leukemia cell differentiation protein Mcl-1 (Homo sapiens) (UniProt Q07820). Briefly: Mcl-1 Noxa peptide disruption concentration-response – biochemical, TR-FRET, dose response (AID 1417). To be noted: Mcl-1/Noxa peptide interaction, cell-free TR-FRET (terbium/rhodamine), 2 h; measured here: absolute IC50. Background: Time-resolved FRET reads energy transfer from a long-lived donor to a nearby acceptor.
Sequence of Induced myeloid leukemia cell differentiation protein Mcl-1 (Homo sapiens) (Q07820 whole entry, looked up): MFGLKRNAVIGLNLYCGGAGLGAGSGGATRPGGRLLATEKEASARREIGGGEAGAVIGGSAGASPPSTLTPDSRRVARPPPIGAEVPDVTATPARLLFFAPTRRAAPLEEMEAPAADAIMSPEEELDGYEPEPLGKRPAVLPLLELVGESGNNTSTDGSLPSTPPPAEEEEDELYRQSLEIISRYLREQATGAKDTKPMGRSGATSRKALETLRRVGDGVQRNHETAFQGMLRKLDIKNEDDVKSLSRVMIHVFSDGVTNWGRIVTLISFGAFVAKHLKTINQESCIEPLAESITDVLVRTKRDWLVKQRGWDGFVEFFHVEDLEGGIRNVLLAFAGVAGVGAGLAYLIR
For `COCCn1nnnc1C(c1ccc(O)c(OC)c1)N1CCc2ccccc2C1` (stereo unspecified), the IC50 is less than 400 nM.
The molecule `CCCCn1c(NCc2ccc(N(C)C)cc2)nc2ccccc21` showed an IC50 of 1140 nM.
`COc1cc(C(=O)Nc2ccc3c(c2)C(=O)c2ccccc2C3=O)cc(OC)c1OC` came in with an IC50 of 3970 nM.
As for `CCOC(=O)c1c(OCC)[nH]c2c1cc(O)c1ccccc12`, the IC50 was less than 400 nM.
For `O=C(O)c1ccc(NS(=O)(=O)c2ccc3c(c2)C2C=CCC2C(c2ccccc2F)N3)cc1` (stereo unspecified), the IC50 worked out at 1270 nM.
In turn, `Cc1ccc(C2C(/C=C3/SC(=S)NC3=O)=C(c3cccs3)Oc3ccccc32)cc1` (stereo unspecified) showed an IC50 of less than 400 nM.
With `CCN(CC)c1ccc(NC(=O)Nc2cccc(C(C)=O)c2)cc1`, the IC50 was greater than 54000 nM.
The molecule `CC1=C(C#N)C(=O)N(C2CCS(=O)(=O)C2)C(=O)/C1=C\c1ccc(C)o1` (stereo unspecified) displayed a half-maximal inhibitory concentration (IC50) of less than 400 nM.
Molecule `O=C1NC(=S)S/C1=C\c1ccc(SCc2ccco2)o1` showed an IC50 of less than 400 nM.
`COc1cc(C(c2nnnn2C2CCCC2)N2CCc3ccccc3C2)ccc1O` (stereo unspecified) had an IC50 of less than 400 nM.
Under `COC(=O)CSc1ncnc2c1sc1nc(-c3ccco3)c3c(c12)CC(C)(C)OC3` stands 3550 nM; under `CC1=C(C(=O)OCC(C)C)C(c2ccsc2)NC(=O)N1` (stereo unspecified), greater than 54000 nM; under `O=C1CC(N2CCN(S(=O)(=O)c3ccccc3)CC2)C(=O)N1c1ccccc1` (stereo unspecified), greater than 54000 nM.
The molecule `COc1ccc(-c2ccc(/C=C3/C(=N)N4C=CSC4=NC3=O)o2)c([N+](=O)[O-])c1` displayed an IC50 of 1660 nM.
For `Cc1ccc(O)c(NC2=C(Cl)C(=O)N(Cc3ccccc3)C2=O)c1`, the IC50 is greater than 54000 nM.
Regarding `O=C(O)c1cc(-c2ccc(/C=C3\NC(=O)N(c4ccccc4)C3=O)o2)ccc1Cl`, the IC50 is greater than 54000 nM.
`COc1ccc(N/C=C2\C(=O)CCc3c2oc2cc(Cl)c(O)c(Cl)c32)cc1` returned an IC50 of 5070 nM.
For `N=C1/C(=C/c2ccc(-c3cccc(C(=O)O)c3)o2)C(=O)N=C2SC=C(c3ccccc3)N12`, the IC50 is less than 400 nM.
With `CN(C)c1ccc(Nc2c3c4c(cccc4n(C)c2=O)C(=O)c2ccccc2-3)cc1`, the IC50 was less than 400 nM.
For the molecule `Cc1cc(/C=N/n2c(COc3ccccc3)nc3ccccc3c2=O)c(O)c([N+](=O)[O-])c1`, the IC50 worked out at 1560 nM.
Regarding `COc1cc(/C=C(\C#N)c2nc3ccccc3s2)cc([N+](=O)[O-])c1O`, the IC50 worked out at 3370 nM.
Consider `CC1=NN(c2cccc(C(=O)O)c2)C(=O)/C1=C\C=C\c1ccco1`, for which the IC50 is 4500 nM.
Molecule `O=C(O)c1cccc2c1NC(c1cccc([N+](=O)[O-])c1)C1CC(Sc3ccccc3[N+](=O)[O-])C(Cl)C21` (stereo unspecified) returned an IC50 of 2250 nM.
Under `O=C1OC(c2cccs2)=N/C1=C/c1ccc(-c2cccc(C(=O)O)c2)o1` stands greater than 54000 nM.
In turn, `Nc1ncnc2oc(-c3ccco3)c(-c3ccco3)c12` showed an IC50 of 3700 nM.
Turning to `O=C1CCCC2=C1C(c1ccc(O)c(O)c1)Nc1ccc3ncccc3c12` (stereo unspecified), the half-inhibitory concentration (IC50) is less than 400 nM.
Next, `COc1ccc(CCNC(=O)CN(c2ccc(OC)c(OC)c2)S(C)(=O)=O)cc1`: greater than 54000 nM; `COc1ccc(O)c(C(=O)c2cc(SCC(=O)O)c3nc4sc5c(c4c(=O)n3c2)CCCC5)c1`: less than 400 nM.
Under `COc1cc(O)c(C(=O)O)c(-c2cc(O)c(O)cc2C)c1` stands less than 400 nM; under `COc1cccc(C(=O)Nc2cc(Cl)c(O)c(Cl)c2)c1`, greater than 54000 nM; under `O=C(c1ccc2nc(-c3ccco3)c(-c3ccco3)nc2c1)N1CCN(c2ncccn2)CC1`, 12600 nM.
For `CSc1nc(NCCOCCO)c2sc3nc(-c4ccco4)c4c(c3c2n1)CCC4`, the IC50 is less than 400 nM.
The molecule `O=C(Nc1cccc(S(=O)(=O)NC2=NCCC2)c1)c1cc(-c2ccco2)nc2ccccc12` came in with an IC50 of less than 400 nM.
Next, `O=C1NC(=S)NC(=O)C1=Cc1ccc2c(c1)CCN2CCCCl`: less than 400 nM.
Take `CN=c1scc(C)n1/N=C/c1ccc(O)c(O)c1O`: the IC50 turned out to be 1760 nM.
As to `Cc1nc(S/C(=C\c2ccc(-c3ccc(C(=O)O)c(Cl)c3)o2)C(=O)O)n[nH]1`, the IC50 was less than 400 nM.

In general, IC50 refers to the concentration needed to halve the response being measured. Lower therefore signals inhibition by little substance.

(Values after PubChem BioAssay AID1417 (Emory University Molecular Libraries Screening Center, 2008).)
